Among the data in patent publication US20100305143A1, “PYRROLOPYRIMIDINE COMPOUNDS” (VERNALIS (R & D) LTD., priority 2007, published 2010) are IC50 values, retold here.

Structures are written as SMILES. Some results are limits rather than exact numbers.

In this experiment the target is T1, human adenosine A2B receptors (Homo sapiens, UniProt P29275).
T1 construct: expressed in transfected cells
T1 sequence (P29275 1-332): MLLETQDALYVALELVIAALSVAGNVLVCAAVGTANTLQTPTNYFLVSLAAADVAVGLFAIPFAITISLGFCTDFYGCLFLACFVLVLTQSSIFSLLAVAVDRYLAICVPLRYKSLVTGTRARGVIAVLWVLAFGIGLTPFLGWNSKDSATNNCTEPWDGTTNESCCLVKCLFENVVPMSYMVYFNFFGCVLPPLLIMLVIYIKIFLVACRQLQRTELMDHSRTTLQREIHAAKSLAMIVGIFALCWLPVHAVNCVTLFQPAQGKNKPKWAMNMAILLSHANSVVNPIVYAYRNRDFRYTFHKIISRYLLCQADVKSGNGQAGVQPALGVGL
The experiment is described as follows: FLIPR calcium flux assay in cells expressing human adenosine A2B receptors. Type of experiment: cell-based. The following applies: expressed human adenosine A2B receptors in mammalian cell lines, from dose response curves, read-out: Activity (IC50 activity range). The procedure: The use of a Fluorometric Imaging Plate Reader (FLIPR) to measure calcium flux in Adenosine-receptor expressing cells is a well-established technique. In this assay calcium flux is triggered by receptor activation and measured through the fluorescence of an incorporated calcium-sensitive dye. The potencies shown were determined using expressed human adenosine A2B receptors in mammalian cell lines. Selectivity values were obtained by using mammalian cell lines expressing the human adenosine A1, A2A and A3 receptors. Compound potency was determined from dose response curves and are reported as IC50 values.
(A change in cytosolic calcium serves as a functional read-out for many receptors and channels.)
As for `Cn1ccc2c(C(=O)c3cccs3)nc(NCc3cccnc3)nc21` [Example 6, {7-Methyl-2-[(pyridin-3-ylmethyl)-amino]-7H-pyrrolo[2,3d]pyrimidin-4-yl}-thiophen-2-yl-methanone], the IC50 – broadly, the concentration that gives 50% inhibition – was under 500 nM.

As to `CC(Nc1nc(C(=O)c2cccs2)c2ccn(C)c2n1)c1cccnc1` (centres unmarked) [Example 7, [7-Methyl-2-(1-pyridin-3-yl-ethylamino)-7H-pyrrolo[2,3-d]pyrimidin-4-yl]-thiophen-2-yl-methanone], the IC50 is under 500 nM.

Turning to `Cc1ccc(C(=O)c2nc(NCc3cccnc3)nc3c2ccn3C)s1` [Example 8, {7-Methyl-2-[(pyridin-3-ylmethyl)-amino]-7H-pyrrolo[2,3-d]pyrimidin-4-yl}-(5-methyl-thiophen-2-yl)-methanone], the IC50 is under 500 nM.

As for `Cc1ccc(C(=O)c2nc(NCc3ccccn3)nc3c2ccn3C)s1` [Example 9, {7-Methyl-2-[(pyridin-2-ylmethyl)-amino]-7H-pyrrolo[2,3-d]pyrimidin-4-yl}-(5-methyl-thiophen-2-yl)-methanone], the IC50 is under 500 nM.

Take `Cc1ccc(C(=O)c2nc(NCc3ccncc3)nc3c2ccn3C)s1` [Example 10, {7-Methyl-2-[(pyridin-4-ylmethyl)-amino]-7H-pyrrolo[2,3-d]pyrimidin-4-yl}-(5-methyl-thiophen-2-yl)-methanone]: the IC50 is over 500 nM.

Consider `O=C(c1cccs1)c1nc(Cl)nc2[nH]ccc12` [Example 13, (2-Chloro-7H-pyrrolo[2,3-d]pyrimidin-4-yl)-thiophen-2-yl-methanone], for which the IC50 is over 500 nM.

Turning to `O=C(c1cccs1)c1nc(NCc2ccccn2)nc2[nH]ccc12` [Example 14, {2-[(Pyridin-2-ylmethyl)-amino]-7H-pyrrolo[2,3-d]pyrimidin-4-yl}-thiophen-2-yl-methanone], the IC50 is over 500 nM.

Consider `O=C(c1cccs1)c1nc(Cl)nc2c1ccn2Cc1ccccc1` [Example 17, (7-Benzyl-2-chloro-7H-pyrrolo[2,3-d]pyrimidin-4-yl)-thiophen-2-yl-methanone], for which the IC50 is over 500 nM.

For `O=C(c1cccs1)c1nc(NCc2cccnc2)nc2c1ccn2Cc1ccccc1` [Example 18, {7-Benzyl-2-[(pyridin-3-ylmethyl)-amino]-7H-pyrrolo[2,3-d]pyrimidin-4-yl}-thiophen-2-yl-methanone], the IC50 was over 500 nM.

With `CCCCCn1ccc2c(C(=O)c3cccs3)nc(NCc3cccnc3)nc21` [Example 19, {7-Pentyl-2-[(pyridin-3-ylmethyl)-amino]-7H-pyrrolo[2,3-d]pyrimidin-4-yl}-thiophen-2-yl-methanone], the IC50 is over 500 nM.

As to `O=C(c1cccs1)c1nc(NCc2cccnc2)nc2c1ccn2CC1CC1` [Example 20, {7-Cyclopropylmethyl-2-[(pyridin-3-ylmethyl)-amino]-7H-pyrrolo[2,3-d]pyrimidin-4-yl}-thiophen-2-yl-methanone], the IC50 was over 500 nM.

`CCCn1ccc2c(C(=O)c3cccs3)nc(NCc3cccnc3)nc21` [Example 21, {7-Propyl-2-[(pyridin-3-ylmethyl)-amino]-7H-pyrrolo[2,3-d]pyrimidin-4-yl}-thiophen-2-yl-methanone]: the IC50 was over 500 nM.

Take `Cn1cc(Br)c2c(C(=O)c3cccs3)nc(NCc3cccnc3)nc21` [Example 25, {5-Bromo-7-methyl-2-[(pyridin-3-ylmethyl)-amino]-7H-pyrrolo[2,3-d]pyrimidin-4-yl}-thiophen-2-yl-methanone]: the IC50 is over 500 nM.

In the case of `Cn1cc(-c2ccccc2)c2c(C(=O)c3cccs3)nc(NCc3cccnc3)nc21` [Example 26, {7-Methyl-5-phenyl-2-[(pyridin-3-ylmethyl)-amino]-7H-pyrrolo[2,3-d]pyrimidin-4-yl}-thiophen-2-yl-methanone], the IC50 was over 500 nM.

`Cn1cc(-c2ccc(S(C)(=O)=O)cc2)c2c(C(=O)c3cccs3)nc(NCc3cccnc3)nc21` [Example 27, {5-(4-Methanesulfonyl-phenyl)-7-methyl-2-[(pyridin-3-ylmethyl)-amino]-7H-pyrrolo[2,3-d]pyrimidin-4-yl}-thiophen-2-yl-methanone]: the IC50 is over 500 nM.

As to `COc1ccc(-c2cn(C)c3nc(NCc4cccnc4)nc(C(=O)c4cccs4)c23)cc1` [Example 28, {5-(4-Methoxy-phenyl)-7-methyl-2-[(pyridin-3-ylmethyl)-amino]-7H-pyrrolo[2,3-d]pyrimidin-4-yl}-thiophen-2-yl-methanone], the IC50 is over 500 nM.

For `COc1ccccc1-c1cn(C)c2nc(NCc3cccnc3)nc(C(=O)c3cccs3)c12` [Example 29, {5-(2-Methoxy-phenyl)-7-methyl-2-[(pyridin-3-ylmethyl)-amino]-7H-pyrrolo[2,3-d]pyrimidin-4-yl}-thiophen-2-yl-methanone], the IC50 was over 500 nM.

Consider `Cn1c(Br)cc2c(C(=O)c3cccs3)nc(Cl)nc21` [Example 35, (6-Bromo-2-chloro-7-methyl-7H-pyrrolo[2,3-d]pyrimidin-4-yl)-thiophen-2-yl-methanone], for which the IC50 is under 500 nM.

With `Cn1c(Cl)cc2c(C(=O)c3cccs3)nc(Cl)nc21` [Example 39, (2,6-Dichloro-7-methyl-7H-pyrrolo[2,3-d]pyrimidin-4-yl)-thiophen-2-yl-methanone], the IC50 is under 500 nM.

Take `Cn1c(Cl)cc2c(C(=O)c3cccs3)nc(NCc3cccnc3)nc21` [Example 40, {6-Chloro-7-methyl-2-[(pyridin-3-ylmethyl)-amino]-7H-pyrrolo[2,3-d]pyrimidin-4-yl}-thiophen-2-yl-methanone]: the IC50 is over 500 nM.
